{
  "source": "ChEMBL document CHEMBL5120923",
  "about": "“Tamarixetin Attenuated the Virulence of Staphylococcus aureus by Directly Targeting Caseinolytic Protease P” (J Nat Prod, 2022)",
  "key": {"Staphylococcus aureus [1]": {"tested_on": "Staphylococcus aureus", "assay": "Inhibition of Hla protein expression in methicillin-resistant Staphylococcus aureus USA300 at 4 to 64 ug/ml incubated for overnight by western blot analysis", "assay_type": "functional", "settings": "dose 4-64 µg/ml, DDE = dose-dependent effect"}, "Staphylococcus aureus [2]": {"tested_on": "Staphylococcus aureus", "assay": "Inhibition of Hla protein expression in methicillin-resistant Staphylococcus aureus Newman at 4 to 64 ug/ml incubated for overnight by western blot analysis", "assay_type": "functional", "settings": "dose 4-64 µg/ml, DDE = dose-dependent effect"}},
  "data": [
    {"molecule": "COc1ccc(-c2oc3cc(O)cc(O)c3c(=O)c2O)cc1O", "note": "[TAMARIXETIN]", "values": [
      {"measurement": "inhibition", "setting": "Staphylococcus aureus [1]", "value": "Dde"},
      {"measurement": "inhibition", "setting": "Staphylococcus aureus [2]", "value": "Dde"}
    ]}
  ]
}
